One may read the IC50 as the concentration needed to halve the response being measured. A low value points to higher potency.

The structures appear in SMILES notation. Some results are limits rather than exact numbers.

The test system of assay [1] is IL-1β secretion from human whole blood. The assay is described as follows: Inhibition of IL-1β secretion from whole blood. The following applies: human whole blood diluted 1:2, LPS 5 ng/ml, 18 hours, ELISA. In kind it is cell-based. As to the method: Human blood is freshly drawn from healthy donors and diluted 1:2 in PBS. To 500 μl of diluted blood […] of prediluted test compound in RPMI medium and […] LPS (5 ng/ml final concentration on the plate) are added (LPS, Serotype 0111:B4, Sigma L3012). After stimulation for 18 hours supernatants are collected and assayed for IL-1β levels using the appropriate ELISA kit (R&D systems).
For orientation: An ELISA detects its analyte on a solid surface through an enzyme-linked reagent.

Assay [2] relates to rat cortical neurons. The assay is described as follows: Hypoxia-induced apoptosis of rat cortical neurons. Type of assay: cell-based, Wistar rat. The following applies: Cortical neurone, 95% N2/5% CO2, Cell Death Detection ELISA (DNA fragmentation). As to the method:
Cortical neurons are dissociated from Wistar rat embryos (E17) by a modification of the procedure of Rogers et al. 1997, Brain Res. Bulletin, 44:131. Briefly, cerebral cortices are isolated aseptically from 15-20 Wistar rat embryos. A cell suspension is prepared by mincing the cerebral cortices and digesting them with papain. Cells are washed with ovomucoid enzyme inhibitor and DNaseI and plated onto Poly-D lysine coated plates in high glucose DMEM containing 10% heat-inactivated fetal calf serum, L-glutamine, penicillin and streptomycin. The yield of neurons is […] per embryo and they are 80-90% viable as assessed by Trypan blue exclusion.
The neurons are cultured in complete medium at 37° C. in a normal atmosphere for 48 hours prior to the hypoxia experiments. For hypoxia, the normal cell medium is replaced by oxygen-depleted serum-free medium. Cells are incubated in an atmosphere of 95% N2/5% CO2 for various lengths of time. Compounds are dissolved in DMSO at 100 mM then diluted in medium and added to the culture from time=0. The level of apoptosis is measured using a Cell Death Detection ELISA kit (Roche) which detects DNA fragmentation. Plates are read at 405 nm. Controls included cells cultured in aerobic conditions in serum-containing medium (+serum) and cells cultured in aerobic conditions in serum-deprived medium (−serum).

The subject of assay [3] is Jurkat E6.1 cells. Kind of assay: Anti-Fas induced apoptosis assay. Particulars: Homo sapiens, anti-Fas antibody CH-11 10 ng/ml, 16-18 hrs, DNA fragmentation. In kind it is cell-based. From the text:
Cellular apoptosis may be induced by the binding of Fas ligand (FasL) to its receptor, CD95 (Fas). CD95 is one of a family of related receptors, known as death receptors, which can trigger apoptosis in cells via activation of the caspase enzyme cascade. The process is initiated by the binding of the adapter molecule FADD/MORT-1 to the cytoplasmic domain of the CD-95 receptor-ligand complex. Caspase-8 then binds FADD and becomes activated, initiating a cascade of events that involve the activation of downstream caspases and subsequent cellular apoptosis. Apoptosis can also be induced in cells expressing CD95 e.g., the Jurkat E6.1 T cell lymphoma cell line, using an antibody, rather than FasL, to crosslink the cell surface CD95. Anti-Fas-induced apoptosis is also triggered via the activation of caspase-8. This provides the basis of a cell based assay to screen compounds for inhibition of the caspase-8-mediated apoptotic pathway.
Jurkat E6.1 cells are cultured in complete medium consisting of RPMI-1640 (Sigma No)+10% foetal calf serum (Gibco BRL No. 10099-141)+2 mM L-glutamine (Sigma No. G-7513). The cells are harvested in log phase of growth. 100 ml of cells at 5-8×10^5 cells/ml are transferred to sterile 50 ml Falcon centrifuge tubes and centrifuged for 5 minutes at 100×g at room temperature. The supernatant is removed and the combined cell pellets resuspended in 25 ml of complete medium. The cells are counted and the density adjusted to 2×10^6 cells/ml with complete medium.
The test compound is dissolved in dimethyl sulfoxide (DMSO)(Sigma No. D-2650) to give a 100 mM stock solution. This is diluted to 400 μM in complete medium, then serially diluted in a 96-well plate prior to addition to the cell assay plate.
100 μl of the cell suspension ([…]) is added to each well of a sterile 96-well round-bottomed cluster plate (Costar No. 3790). 50 μl of compound solution at the appropriate dilution and 50 μl of anti-Fas antibody, clone CH-11 (Upstate, Cat No. 1 544 675) at a final concentration of 10 ng/ml, are added to the wells. Control wells are set up minus antibody and minus compound but with a serial dilution of DMSO as vehicle control. The plates are incubated for 16-18 hrs at 37° C. in 5% CO2 and 95% humidity.
Apoptosis of the cells is measured by the quantitation of DNA fragmentation using a ‘Cell Death Detection Assay’ from Roche diagnostics, No. 1544 675. After incubation for 16-18 hrs the assay plates are centrifuged at 100×g at room temperature for 5 minutes. 150 μl of the supernatant are removed and replaced by 150 μl of fresh complete medium. The cells are then harvested and 200 μl of the lysis buffer supplied in the assay kit are added to each well. The cells are triturated to ensure complete lysis and incubated for 30 minutes at 4° C. The plates are then centrifuged at 1900×g for 10 minutes and the supernatants diluted 1:20 in the incubation buffer provided. 100 μl of this solution is then assayed according to the manufacturer's instructions supplied with the kit. OD405 nm is measured 20 minutes after addition of the final substrate in a SPECTRAmax Plus plate reader (Molecular Devices). OD405 nm is plotted versus compound concentration and the IC50 values for the compounds are calculated using the curve-fitting program SOFTmax Pro (Molecular Devices) using the four parameter fit option.

Consider `CC[C@@H](C(=O)N[C@@H](CC(=O)O)C(=O)COc1c(F)c(F)cc(F)c1F)n1cccc(NC(=O)C2CC2)c1=O` [Compound 4, (S,S)-3-{2-[3-(Cyclopropanecarbonyl-amino)-2-oxo-2H-pyridin-1-yl]-butyrylamino}-4-oxo-5-(2,3,5,6-tetrafluoro-phenoxy)-pentanoic acid], for which the results for the IC50 in assay [1], in assay [2] and in assay [3] were 500 to 5000 nM, 1000 to 10000 nM and less than 500 nM, respectively.

Take `CC[C@@H](C(=O)N[C@@H](CC(=O)O)C(=O)COc1c(F)c(F)cc(F)c1F)n1cccc(NC(=O)C(C)C)c1=O` [Compound 5, (S,S)-3-[2-(3-Isobutyrylamino-2-oxo-2H-pyridin-1-yl)-butyrylamino]-4-oxo-5-(2,3,5,6-tetrafluoro-phenoxy)-pentanoic acid]: the IC50 was less than 500 nM in assay [1], less than 1000 nM in assay [2] and less than 500 nM in assay [3].

Regarding `CC[C@@H](C(=O)N[C@@H](CC(=O)O)C(=O)COc1c(F)c(F)cc(F)c1F)n1cccc(NC(=O)c2ccco2)c1=O` [Compound 7, (S,S)-3-(2-{3-[(Furan-2-carbonyl)-amino]-2-oxo-2H-pyridin-1-yl}-butyrylamino)-4-oxo-5-(2,3,5,6-tetrafluoro-phenoxy)-pentanoic acid], the IC50 in assay [1] is less than 500 nM; in assay [2], 1000 to 10000 nM; in assay [3] it was less than 500 nM.

With `CC[C@@H](C(=O)N[C@@H](CC(=O)O)C(=O)COc1c(F)c(F)cc(F)c1F)n1cccc(NC(=O)c2ccccc2)c1=O` [Compound 11, (S,S)-3-[2-(3-Benzoylamino-2-oxo-2H-pyridin-1-yl)-butyrylamino]-4-oxo-5-(2,3,5,6-tetrafluoro-phenoxy)-pentanoic acid], the IC50 in assay [1] is less than 500 nM; in assay [2] it was less than 1000 nM; in assay [3], less than 500 nM.

For `CC[C@@H](C(=O)N[C@@H](CC(=O)O)C(=O)COc1c(F)c(F)cc(F)c1F)n1cc(C(F)(F)F)cc(NC(C)=O)c1=O` [Compound 13, (S,S)-3-[2-(3-Acetylamino-2-oxo-5-trifluoromethyl-2H-pyridin-1-yl)-butyrylamino]-4-oxo-5-(2,3,5,6-tetrafluoro-phenoxy)-pentanoic acid], the values for the IC50 in assay [1], in assay [2] and in assay [3] were 500 to 5000 nM, less than 1000 nM and less than 500 nM, respectively.

On to `CC[C@@H](C(=O)N[C@@H](CC(=O)O)C(=O)COc1c(F)c(F)cc(F)c1F)n1cccc(NC(=O)OC)c1=O` [Compound 17, (S,S)-3-[2-(3-Methoxycarbonylamino-2-oxo-2H-pyridin-1-yl)-butyrylamino]-4-oxo-5-(2,3,5,6-tetrafluoro-phenoxy)-pentanoic acid], for which the results for the IC50 in assay [1], in assay [2] and in assay [3] were less than 500 nM, less than 1000 nM and less than 500 nM, respectively.

As for `CC[C@@H](C(=O)N[C@@H](CC(=O)O)C(=O)COc1c(F)c(F)cc(F)c1F)n1cccc(NS(=O)(=O)CC)c1=O` [Compound 18, (S,S)-3-[2-(3-Ethanesulfonylamino-2-oxo-2H-pyridin-1-yl)-butyrylamino]-4-oxo-5-(2,3,5,6-tetrafluoro-phenoxy)-pentanoic acid], the figures for the IC50 in assay [1], in assay [2] and in assay [3] were 500 to 5000 nM, 1000 to 10000 nM and less than 500 nM, respectively.

Turning to `CCCS(=O)(=O)Nc1cccn([C@@H](CC)C(=O)N[C@@H](CC(=O)O)C(=O)COc2c(F)c(F)cc(F)c2F)c1=O` [Compound 19, (S,S)-4-Oxo-3-{2-[2-oxo-3-(propane-1-sulfonylamino)-2H-pyridin-1-yl]-butyrylamino}-5-(2,3,5,6-tetrafluoro-phenoxy)-pentanoic acid], the IC50 in assay [1] is 500 to 5000 nM; in assay [2] it was 1000 to 10000 nM; in assay [3], less than 500 nM.

As to `CC[C@@H](C(=O)N[C@@H](CC(=O)O)C(=O)COc1c(F)c(F)cc(F)c1F)n1cc(C(F)(F)F)cc(NS(=O)(=O)CC)c1=O` [Compound 22, (S,S)-3-[2-(3-Ethanesulfonylamino-2-oxo-5-trifluoromethyl-2H-pyridin-1-yl)-butyrylamino]-4-oxo-5-(2,3,5,6-tetrafluoro-phenoxy)-pentanoic acid], the values for the IC50 in assay [1], in assay [2] and in assay [3] were 500 to 5000 nM, less than 1000 nM and less than 500 nM, respectively.

As to `CCC(=O)Nc1cccn([C@@H](CC)C(=O)NC(CC(=O)O)C(=O)CF)c1=O` (stereo partly drawn) [Compound 29, (S)-5-Fluoro-4-oxo-3-[2-(2-oxo-3-propionylamino-2H-pyridin-1-yl)-butyrylamino]-pentanoic acid], the IC50 in assay [1] is less than 500 nM; in assay [2], 1000 to 10000 nM; in assay [3], less than 500 nM.

For the compound `CCC(=O)Nc1cccn([C@@H](CC(C)C)C(=O)NC(CC(=O)O)C(=O)CF)c1=O` (stereo partly drawn) [Compound 36, (S)-5-Fluoro-3-[4-methyl-2-(2-oxo-3-propionylamino-2H-pyridin-1-yl)-pentanoylamino]-4-oxo-pentanoic acid], the IC50 in assay [1] is 500 to 5000 nM; in assay [2], 1000 to 10000 nM; in assay [3], 500 to 2000 nM.

(Values after patent US7960415B2, “Caspase inhibitors and uses thereof” (Vertex Pharmaceutical Incoporated, priority 2003, dated 2011).)
